We go through 11 molecules from patent publication US5998477A, “Substituted methoxy benzylidene indenyl-acetic and propionic acids for treating patients with precancerous lesions” (Cell Pathways Inc., priority 1997, dated 1999).

The inhibition is the percentage by which the read-out fell short of the control.

One data set concerns SW-480 cell line. The data set is described as follows: Tumor cell growth inhibition, Sulforhodamine B (SRB) protein binding assay, SW-480. The data set is classed as cell-based. The conditions noted are these: Homo sapiens, SW480, 144 h, SW-480, six days exposure, read-out: Single Dose Percent Inhibition. As to the method:
(§1) Drug stock solutions were made in 100% DMSO then diluted with RPMI media for cell culture testing. All drug solutions were prepared fresh on the day of testing. The cultured cells were obtained at passage #118 and grown in RPMI media supplemented with 5% fetal calf serum, and 2 mM glutamine, 100 U/ml penicillin, 100 U/ml streptomycin, and 0.25 μg/ml amphotericin. The cultures were maintained in a humidified atmosphere of 95% air and 5% CO2 at 37° C. The cultures were passaged at preconfluent densities using a solution of 0.05% trypsin and 0.53 mM EDTA. All experiments involved HT-29 cells between passages 120 and 140, except for the compound of Example 29 which involved SW-480 cell line. Cells were plated at the following densities to obtain cultures used for the experiments: 500 cells/well for 96 well flat-bottom microtiter plates, 1×10^6 cells 2 per 25 cm^2 flask.
Tumor cell growth inhibition was assessed using the Sulforhodamine B (SRB) protein binding assay. In this assay, tumor cells were plated in 96-well plates and treated with drug-containing media for six days (continuous exposure). […] The dye was then solubilized, and the optical density of the resulting solution was determined on a 96-well plate reader. […]
For each experiment, an IC50 value was determined, if possible, and used for comparative purposes. […]

In another data set the test system is HT-29. Nature of the data set: Apoptosis/Necrosis by fluorescent microscopy (acridine orange and ethidium bromide). The data set is classed as cell-based, human. The method, then:
as §1
Apoptosis and necrosis were measured using an assay that allowed for the simultaneous measurement of both types of cell death based on morphological characteristics of apoptotic cells (i.e., condensed chromatin) and membrane permeability. Drug preparation and cell culture conditions were the same as for the SRB assay described above. Confluent cultures were established in 25 cm^2 flasks. The cultures were assayed for apoptosis and necrosis by fluorescent microscopy following labeling with acridine orange and ethidium bromide. Floating and attached cells were collected by trypsinization and washed three times in PBS. One ml aliquots of 1×10^6 cells were centrifuged (300 g). The pellet was resuspended in 25 μl media and 1 μl of a dye mixture containing 100 μg/ml acridine orange and 100 μg/ml ethidium bromide prepared in PBS and mixed gently. Ten μl of mixture was placed on a microscope slide and covered with a 22 mm^2 coversilp and examined under 40× dry objectives using epillumination and filter combination.
An observer blinded to the identity of the treatments scored at least 100 cells per sample. Apoptotic cells were identified by nuclear condensation of chromatin stained by the acridine orange or ethidium bromide, respectively. Necrotic cells were identified by uniform labelling of the cell with ethidium bromide.

The next data set has as its system colonic polyps. The conditions noted are these: patients taking the drug; cited from earlier work.
For data set [1] the following is noted: background; sulfoxide itself; cited from earlier work.
The conditions of data set [2]: background; cited from earlier work.
A further data set concerns prostaglandin synthesis. To be noted: background; cited from earlier work.
The conditions of data set [3]: background; cited from earlier work. The source holds these as a separate data set.
Data set [4] relates to DMBA-Induced Mammary Lesions in Organ Culture. The data set is described as follows: Mouse mammary gland organ culture, DMBA-induced mammary lesions. Type of data set: cell-based, mouse (BALB/c). The conditions noted are these: vs. vehicle (DMSO), read-out: Percent Inhibition. The method, then:
The compound of Example No. 1 was also tested for its ability to inhibit the incidence of mammary lesions in an organ culture system. This mouse mammary gland organ culture technique has been successfully used by other investigators to study the effects of known cancer-chemopreventative agents such as retinoids and selenium.
Female BALB/c mice, 28 days old, were treated for nine days with a combination of 1 μg of estradiol and 1 mg of progesterone daily, in order to prime the glands to be responsive to hormones in vitro. The animals were sacrificed and thoracic mammary glands were excised aseptically and incubated for ten days in growth media supplemented with growth-promoting hormones: insulin, prolactin, and hydrocortisone, at 5 μg/ml each and aldosterone at 1 μg/ml. A twenty-four hour treatment of 7,12-dimethylbenz(a)anthracene (DMBA, 2 μg/ml) was carried out between days three and four to induce the formation of mammary lesions. Fully developed glands were deprived of prolactin, hydrocortisone, and aldosterone for 14 days, resulting in the regression of the glands but not the mammary lesions. […]
The extent of the area occupied by the mammary lesions was quantitated by projecting an image of the gland onto a digitation pad. […] The space covered by each of the unregressed structures was also outlined on the digitization pad and quantitated by the computer.

For the next data set, the system named is precancerous lesions. The conditions noted are these: background; cited from earlier work.

Entries after “also recorded” stand apart in the source; their conditions may differ.

Take `COc1cc(/C=C2/C(C)=C(CC(=O)O)c3cc(F)ccc32)cc(Br)c1OC` [Example 29, (Z)-5-fluoro-2-methyl-1-(3-bromo-4,5-dimethoxybenzylidene)-3-indenyl-acetic acid]: the inhibition at 100 µM in the data set with SW-480 cell line was 80%.
`COc1ccc(/C=C2/C(C)=C(CC(=O)O)c3cc(F)ccc32)c(OC)c1OC` [Example 7, (Z)-5-fluoro-2-methyl-1-(2,3,4-trimethoxybenzylidene)-3-indenyl-acetic acid]: in the data set with HT-29 (200 μM), the “% Apoptotic Cells” value is reported as > 90%.
In the case of `CC1=C(CC(=O)O)c2cc(F)ccc2/C1=C\c1ccc([S+](C)[O-])cc1` (stereo not drawn) [Sulindac], the effect on polyps entry with colonic polyps is given as “Polyps virtually disappear”. For the same molecule, the anti-arthritic activity result in data set [1] is “believed to be inactive as an anti-arthritic agent”. In addition, in data set [2], the metabolic conversion result was “converted by liver enzymes to the corresponding sulfide; also recorded: metabolized to sulfone compound”.
Regarding `CC1=C(CC(=O)O)c2cc(F)ccc2/C1=C\c1ccccc1` [Example 10, (Z)-5-fluoro-2-methyl-1-benzylidene-3-indenyl-acetic acid], the “% Apoptotic Cells” value in the data set with HT-29 (300 μM) stood at 90%.
Regarding `COc1cc(OC)c(OC)cc1/C=C1/C(C)=C(CC(=O)O)c2cc(F)ccc21` [Example 8, (Z)-5-fluoro-2-methyl-1-(2,4,5-trimethoxybenzylidene)-3-indenyl-acetic acid], the “% Apoptotic Cells” value with HT-29 (200 μM) is > 90%.
As to `CSc1ccc(/C=C2/C(C)=C(CC(=O)O)c3cc(F)ccc32)cc1` [Sulindac Sulfide], in the data set with prostaglandin synthesis, the prostaglandin synthesis inhibition entry is listed as “active moiety as a prostaglandin synthesis inhibitor”. The side effects result in data set [3] is listed as “associated with the side effects of conventional NSAIDs”.
Consider `COc1cc(/C=C2/C(C)=C(CC(=O)O)c3cc(F)ccc32)cc(OC)c1OC` [Example 1, (Z)-5-fluoro-2-methyl-1-(3,4,5-trimethoxybenzylidene)-3-indenyl-acetic acid], for which the “% Apoptotic Cells” value with HT-29 (200 μM) was > 90%. For the same molecule, the inhibition at 10 µM in [4] (10 μM) was found to be 50%. For the same molecule, the inhibition at 100 µM in data set [4] (100 μM) came to 100%.
As to `CC1=C(CC(=O)O)c2cc(F)ccc2/C1=C\c1c(Cl)cccc1Cl` [Example 6, (Z)-5-fluoro-2-methyl-1-(2,6-dichlorobenzylidene)-3-indenyl-acetic acid], in the data set on HT-29 (200 μM), the “% Apoptotic Cells” value is given as 60% and the “% Necrotic Cells” value was 40%.
As to `CC1=C(CC(=O)O)c2cc(F)ccc2/C1=C\c1ccc(S(C)(=O)=O)cc1` [sulfone], the prostaglandin synthesis inhibition result with prostaglandin synthesis was “inactive as an inhibitor of prostaglandin synthesis”. The “inhibition of precancerous lesions” value with precancerous lesions was “active as an inhibitor of precancerous lesions”.
As for `COc1ccc(/C=C2/C(C)=C(CC(=O)O)c3cc(F)ccc32)cc1` [Example 11, (Z)-5-fluoro-2-methyl-1-(4-methoxybenzylidene)-3-indenyl-acetic acid], the “% Apoptotic Cells” value in the data set with HT-29 (200 μM) is > 90%.
As to `COc1cc(OC)c(/C=C2/C(C)=C(CC(=O)O)c3cc(F)ccc32)c(OC)c1` [Example 4, (Z)-5-fluoro-2-methyl-1-(2,4,6-trimethoxybenzyildene)-3-indenyl-acetic acid], the “% Apoptotic Cells” value in the data set with HT-29 (200 μM) is on record as > 90%.
